Results as given in patent publication US10239870B2, “Dopamine D3 receptor antagonists” (priority 2014, dated 2019).
Structures can show the parent of a compound that is named as a salt.

molecular target: T1, hD2 recombinant receptor (human dopamine receptor type 2, long variant, CHO-Gα16-hD2L cells) (Homo sapiens (Human), UniProt P14416); assay: not given; conditions: functional pKi; antagonism of dopamine EC80 calcium response (FLIPR)

In the case of `Cc1ncoc1-c1nnc(SCCCN2CCC[C@@]3(C[C@H]3c3ccc(C(F)(F)F)cc3)C2)n1C` (single isomer, unassigned) [Example 314, (1S,3S or 1R,3R)-5-(3-{[4-methyl-5-(4-methyl-1,3-oxazol-5-yl)-4H-1,2,4-triazol-3-yl]sulfanyl}propyl)-1-[4-(trifluoromethyl)phenyl]-5-azaspiro[2.5]octane], the “D2 fpKi” value is reported as <5.
With `Cc1ncoc1-c1nnc(SCCCN2CC[C@]3(CC[C@H]3c3ccccc3)C2)n1C` (single isomer, unassigned) [Example 318, (1R,4S or 1S,4R or 1S,4S or 1R,4R)-6-(3-{[4-methyl-5-(4-methyl-1,3-oxazol-5-yl)-4H-1,2,4-triazol-3-yl]sulfanyl}propyl)-1-phenyl-6-azaspiro[3.4]octane] the “D2 fpKi” value was <5.
`Cn1c(OCCCN2CC[C@@]3(C[C@@H]3c3ccc(C(F)(F)F)cc3)C2)nnc1C1CCOCC1` (single isomer, unassigned) [Example 305, (1R,3R or 1S,3S)-5-(3-{[4-methyl-5-(oxan-4-yl)-4H-1,2,4-triazol-3-yl]oxy}-propyl)-1-[4-(trifluoromethyl)phenyl]-5-azaspiro[2.4]heptane] was tested, and the “D2 fpKi” value was <5.
With `Cn1c(OCCCN2CC[C@]3(C[C@H]3c3ccc(C(F)(F)F)cc3)C2)nnc1C1CCOCC1` (single isomer, unassigned) [Example 304, (1S,3S or 1R,3R)-5-(3-{[4-methyl-5-(oxan-4-yl)-4H-1,2,4-triazol-3-yl]oxy}propyl)-1-[4-(trifluoromethyl)phenyl]-5-azaspiro[2.4]heptane] the “D2 fpKi” value was <5.

In the case of `Cc1ncoc1-c1nnc(SCCCN2CCC[C@]3(C[C@H]3c3ccc(C(F)(F)F)cc3)C2)n1C` (single isomer, unassigned) [Example 312, (1S,3R or 1R,3S)-5-(3-{[4-methyl-5-(4-methyl-1,3-oxazol-5-yl)-4H-1,2,4-triazol-3-yl]sulfanyl}propyl)-1-[4-(trifluoromethyl)phenyl]-5-azaspiro[2.5]octane], the “D2 fpKi” value is reported as 8.26.

molecular target: T1, hD2 recombinant receptor (human dopamine receptor type 2, long variant, CHO-Gα16-hD2L cells); assay: cell-based; conditions: D2 fpKi, functional pKi; antagonism of dopamine EC80 calcium response (FLIPR)

Compared with `Cn1c(SCCCN2CC[C@]3(CC3c3ccc(C(F)(F)F)cc3F)C2)nnc1-c1cnccn1` (stereo partly drawn) [Example 221, (1S,3S/1R,3R)-1-[2-fluoro-4-(trifluoromethyl)phenyl]-5-(3-{[4-methyl-5-(pyrazin-2-yl)-4H-1,2,4-triazol-3-yl]sulfanyl}propyl)-5-azaspiro[2.4]heptane], `Cn1c(SCCCN2CC[C@]3(CC3c3ccc(C(F)(F)F)cc3F)C2)nnc1C1CCOCC1` (single isomer, unassigned) [Example 71] is higher in Ki: 87.1 nM for the first, > 10000 nM for the second.

First: Cn1c(SCCCN2CC[C@]3(C[C@@H]3c3ccc(C(F)(F)F)cc3)C2)nnc1N1CCOCC1 (single isomer, unassigned) [Example 118, hydrochloride]
Second: Cc1ncoc1-c1nnc(SCCCN2CCC[C@]3(C[C@@H]3c3ccc(C(F)(F)F)cc3)C2)n1C [Example 313, (1S,3S/1R,3R)-5-(3-{[4-methyl-5-(4-methyl-1,3-oxazol-5-yl)-4H-1,2,4-triazol-3-yl]sulfanyl}propyl)-1-[4-(trifluoromethyl)phenyl]-5-azaspiro[2.5]octane]
The Ki of the first is lower: 41.7 nM for the first, > 10000 nM for the second.

`Cn1c(SCCCN2CC[C@]3(CC3c3ccccc3)C2)nnc1C1CCOCC1` (stereo partly drawn) [Example 80, (1R,3S/1S,3R)-5-(3-{[4-methyl-5-(oxan-4-yl)-4H-1,2,4-triazol-3-yl]-sulfanyl}propyl)-1-phenyl-5-azaspiro[2.4]heptane] and `Cn1c(SCCCN2CC[C@]3(C[C@@H]3c3ccccc3)C2)nnc1C1CCOCC1` (single isomer, unassigned) [Example 83, hydrochloride] cannot be ordered by Ki: > 10000 nM for the first, > 10000 nM for the second.

With `Cc1ncoc1-c1nnc(SCCCN2CCC[C@]3(C[C@H]3c3ccc(C(F)(F)F)cc3)C2)n1C` (racemic) [Example 310, (1R,3S/1S,3R)-5-(3-{[4-methyl-5-(4-methyl-1,3-oxazol-5-yl)-4H-1,2,4-triazol-3-yl]sulfanyl}propyl)-1-[4-(trifluoromethyl)phenyl]-5-azaspiro[2.5]octane] the Ki was 19.1 nM.

molecular target: T2, hD2 recombinant receptor (human dopamine receptor type 2, long variant, CHO-Gα16-hD2L membranes) (Homo sapiens (Human), UniProt P14416); assay: not given; conditions: displacement of 0.08 nM [3H]-Spiperone

With `Cn1c(SCCCN2CC[C@]3(CC3c3ccc(C(F)(F)F)cc3F)C2)nnc1-c1cnccn1` (stereo partly drawn) [Example 221, (1S,3S/1R,3R)-1-[2-fluoro-4-(trifluoromethyl)phenyl]-5-(3-{[4-methyl-5-(pyrazin-2-yl)-4H-1,2,4-triazol-3-yl]sulfanyl}propyl)-5-azaspiro[2.4]heptane] the “D2 pKi” value was 6.37.

molecular target: T2, hD2 recombinant receptor (human dopamine receptor type 2, long variant, CHO-Gα16-hD2L membranes); assay: biochemical; conditions: not given

First: Cc1cccnc1-c1nnc(SCCCN2CC[C@]3(C[C@@H]3c3ccc(C(F)(F)F)cc3)C2)n1C (single isomer, unassigned) [Example 170, dihydrochloride]
Second: Cc1nccnc1-c1nnc(SCCCN2CC[C@]3(C[C@@H]3c3ccc(C(F)(F)F)cc3)C2)n1C (single isomer, unassigned) [Example 227, hydrochloride]
The Ki of the first is 2.5-fold higher: 1410 nM for the first, 575 nM for the second.

Going from `Cn1c(SCCCN2CC[C@]3(C[C@@H]3c3ccc(C(F)(F)F)cc3)C2)nnc1-c1ccnc(C#N)c1` (single isomer, unassigned) [Example 178] to `Cn1c(SCCCN2CC[C@]3(C[C@@H]3c3ccc(C(F)(F)F)cc3)C2)nnc1-c1ccnc(C(N)=O)c1` (single isomer, unassigned) [Example 191], the Ki falls from 794 nM to 513 nM (1.5-fold). The second binds more tightly here.

Compared with `Cn1c(SCCCN2CC[C@]3(C[C@@H]3c3ccc(C(F)(F)F)cc3)C2)nnc1-c1ccc(Oc2ccccc2)nc1` (single isomer, unassigned) [Example 265], `Cn1c(SCCCN2CC[C@]3(C[C@@H]3c3ccc(C(F)(F)F)cc3)C2)nnc1-c1ccc(-n2cnnc2)cc1` (single isomer, unassigned) [Example 276] is 3.5-fold lower in Ki: 589 nM for the first, 166 nM for the second. The second binds more tightly here.

Compared with `Cn1c(SCCCN2CC[C@]3(C[C@@H]3c3ccc(C(F)(F)F)cc3)C2)nnc1-c1ccc(-c2nnn[nH]2)cc1` (single isomer, unassigned) [Example 273], `Cc1nc(-c2ccc(-c3nnc(SCCCN4CC[C@]5(C[C@@H]5c5ccc(C(F)(F)F)cc5)C4)n3C)cc2)no1` (single isomer, unassigned) [Example 275] is 6.6-fold lower in Ki: 3160 nM for the first, 479 nM for the second.

`Cn1c(SCCCN2CC[C@]3(C[C@@H]3c3ccc(C(F)(F)F)cc3)C2)nnc1-c1cnc(-c2cccnc2)o1` (single isomer, unassigned) [Example 263] and `Cn1c(SCCCN2CC[C@]3(C[C@@H]3c3ccc(C(F)(F)F)cc3)C2)nnc1-c1cncc(C(N)=O)c1` (single isomer, unassigned) [Example 192] are within 1.5-fold of each other in Ki: 589 nM for the first, 437 nM for the second.

First: Cc1ncoc1-c1nnc(CCCCN2CC[C@]3(C[C@@H]3c3ccc(C(F)(F)F)cc3)C2)n1C (single isomer, unassigned) [Example 302, hydrochloride]
Second: Cn1c(SCCCN2CC[C@]3(C[C@@H]3c3ccc(C(F)(F)F)cc3)C2)nnc1-c1ccc(C(N)=O)cn1 (single isomer, unassigned) [Example 189, dihydrochloride]
The Ki of the first is 2.6-fold higher: 1150 nM for the first, 437 nM for the second.

Going from `Cn1c(SCCCN2CC[C@]3(C[C@@H]3c3ccc(C(F)(F)F)cc3)C2)nnc1-c1ccc(CC#N)cc1` (single isomer, unassigned) [Example 286] to `Cn1c(SCCCN2CC[C@]3(C[C@@H]3c3ccc(C(F)(F)F)cc3)C2)nnc1-c1ccn2cnnc2c1` (single isomer, unassigned) [Example 269], the Ki rises from 468 nM to 1000 nM (2.1-fold). The first binds more tightly here.

First: Cn1c(SCCCN2CC[C@]3(C[C@@H]3c3ccc(C(F)(F)F)cc3F)C2)nnc1-c1ccc(C(N)=O)nc1 (single isomer, unassigned) [Example 185]
Second: Cn1c(SCCCN2CC[C@@]3(C[C@H]3c3ccc(C(F)(F)F)cc3F)C2)nnc1-c1ccc(C(N)=O)nc1 (single isomer, unassigned) [Example 186]
The Ki of the first is 4-fold lower: 1230 nM for the first, 4900 nM for the second.

Going from `Cn1c(SCCCN2CC[C@]3(C[C@@H]3c3ccc(C(F)(F)F)cc3)C2)nnc1-c1ccc2[nH]cnc2n1` (single isomer, unassigned) [Example 272] to `Cn1c(SCCCN2CC[C@]3(C[C@@H]3c3ccc(C(F)(F)F)cc3)C2)nnc1-c1cccc(C(N)=O)n1` (single isomer, unassigned) [Example 193], the Ki rises from 95.5 nM to 437 nM (4.6-fold).

`Cn1c(SCCCN2CC[C@]3(C[C@@H]3c3ccc(C(F)(F)F)cc3)C2)nnc1N1CCOCC1` (single isomer, unassigned) [Example 118, hydrochloride] and `Cn1c(SCCCN2CC[C@]3(C[C@@H]3c3ccc(C(F)(F)F)cc3F)C2)nnc1-c1ccc(C(N)=O)cn1` (single isomer, unassigned) [Example 190] are within 1.5-fold of each other in Ki: 251 nM for the first, 275 nM for the second.
